We go through twelve compounds from ChEMBL document CHEMBL5465560, “Selectivity Literature for EUbOPEN Chemogenomic Library” (2024).

Experiment [1] has as its target Protein-tyrosine kinase 6 (Homo sapiens, UniProt Q13882). Kind of experiment: Selectivity interaction (KinomeScan (DiscoverX)) EUB0000595a PTK6. The following applies: at 10 µM.
Experiment [2] deals with Dual specificity protein kinase CLK3 (Homo sapiens, UniProt P49761). Kind of experiment: Selectivity interaction (KinomeScan (DiscoverX)) EUB0001619a CLK3. The following applies: at 1 µM.
In experiment [3] the target is T1, Uncharacterized serine/threonine-protein kinase SBK3 (Homo sapiens) (UniProt P0C264).
T1 sequence (whole entry): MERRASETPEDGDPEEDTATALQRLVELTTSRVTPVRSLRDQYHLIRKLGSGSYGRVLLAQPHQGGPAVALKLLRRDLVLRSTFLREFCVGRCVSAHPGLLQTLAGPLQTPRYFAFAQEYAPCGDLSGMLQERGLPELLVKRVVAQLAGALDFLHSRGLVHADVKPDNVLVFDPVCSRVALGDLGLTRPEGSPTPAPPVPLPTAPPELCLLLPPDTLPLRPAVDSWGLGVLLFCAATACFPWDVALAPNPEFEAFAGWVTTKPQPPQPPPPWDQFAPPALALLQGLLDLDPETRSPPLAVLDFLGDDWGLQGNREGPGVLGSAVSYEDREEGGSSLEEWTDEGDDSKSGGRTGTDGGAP
Kind of experiment: Selectivity interaction (KinomeScan (DiscoverX)) EUB0000666a SBK3. Conditions: at 10 µM.

The target of experiment [4] is Ribosomal protein S6 kinase alpha-4 (Homo sapiens) (UniProt O75676). Nature of the experiment: Selectivity interaction (Kinase panel (Invitrogen)) EUB0000639a RPS6KA4. Conditions: at 200 nM.
For experiment [5], the target named is Calcium/calmodulin-dependent protein kinase kinase 2 (Homo sapiens) (UniProt Q96RR4). Kind of experiment: Selectivity interaction (ProQinase) EUB0000171b CAMKK2.
For experiment [6], the target named is Phosphorylase b kinase gamma catalytic chain, skeletal muscle/heart isoform (Homo sapiens) (UniProt Q16816). Kind of experiment: Selectivity interaction (ProQinase) EUB0000171b PHKG1.
Experiment [7] concerns the target ALK tyrosine kinase receptor (Homo sapiens, UniProt Q9UM73). Kind of experiment: Selectivity interaction (Ambit KINOMEscan and KiNATiv profiling in Jurkat cells) EUB0000090b ALK. The experiment is classed as cell-based. Conditions: at 1 µM.
Experiment [8] concerns the target Tyrosine-protein kinase JAK1 (Homo sapiens, UniProt P23458). Kind of experiment: Selectivity interaction (Ambit KINOMEscan and KiNATiv profiling in Jurkat cells) EUB0000090b JAK1. The experiment is classed as cell-based. Conditions: at 1 µM.
The target in experiment [9] is Cyclin-dependent kinase 5/CDK5 activator 1 (Homo sapiens, UniProt Q00535).
For experiment [10], the target named is T2, Serine/threonine-protein kinase MAK (Homo sapiens) (UniProt P20794).
T2 sequence (whole entry): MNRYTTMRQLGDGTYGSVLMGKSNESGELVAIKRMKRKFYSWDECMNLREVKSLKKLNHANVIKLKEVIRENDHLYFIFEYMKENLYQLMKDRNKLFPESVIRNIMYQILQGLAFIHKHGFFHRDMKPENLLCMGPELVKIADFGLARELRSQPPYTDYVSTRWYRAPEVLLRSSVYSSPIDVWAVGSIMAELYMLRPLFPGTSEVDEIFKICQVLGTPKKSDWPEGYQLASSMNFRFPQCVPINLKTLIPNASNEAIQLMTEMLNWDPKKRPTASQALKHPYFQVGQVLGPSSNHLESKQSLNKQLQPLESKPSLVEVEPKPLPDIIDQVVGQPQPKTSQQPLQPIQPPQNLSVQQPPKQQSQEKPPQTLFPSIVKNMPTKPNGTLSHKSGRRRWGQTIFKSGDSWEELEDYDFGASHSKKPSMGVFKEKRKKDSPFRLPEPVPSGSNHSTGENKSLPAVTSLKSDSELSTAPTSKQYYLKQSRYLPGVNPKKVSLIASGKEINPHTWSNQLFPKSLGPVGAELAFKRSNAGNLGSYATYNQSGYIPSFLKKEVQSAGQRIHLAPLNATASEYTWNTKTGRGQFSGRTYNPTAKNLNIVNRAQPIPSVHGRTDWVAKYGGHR
Nature of the experiment: Selectivity interaction (KinomeScan (DiscoverX)) EUB0000655a MAK. The following applies: at 10 µM.

The target of experiment [11] is Ribosomal protein S6 kinase alpha-2 (Homo sapiens) (UniProt Q15349). Nature of the experiment: Selectivity interaction (KinomeScan (DiscoverX)) EUB0000655a RPS6KA2. The following applies: at 10 µM.
Experiment [12] addresses T3, Tyrosine-protein kinase ZAP-70 (Homo sapiens) (UniProt P43403).
T3 sequence (whole entry): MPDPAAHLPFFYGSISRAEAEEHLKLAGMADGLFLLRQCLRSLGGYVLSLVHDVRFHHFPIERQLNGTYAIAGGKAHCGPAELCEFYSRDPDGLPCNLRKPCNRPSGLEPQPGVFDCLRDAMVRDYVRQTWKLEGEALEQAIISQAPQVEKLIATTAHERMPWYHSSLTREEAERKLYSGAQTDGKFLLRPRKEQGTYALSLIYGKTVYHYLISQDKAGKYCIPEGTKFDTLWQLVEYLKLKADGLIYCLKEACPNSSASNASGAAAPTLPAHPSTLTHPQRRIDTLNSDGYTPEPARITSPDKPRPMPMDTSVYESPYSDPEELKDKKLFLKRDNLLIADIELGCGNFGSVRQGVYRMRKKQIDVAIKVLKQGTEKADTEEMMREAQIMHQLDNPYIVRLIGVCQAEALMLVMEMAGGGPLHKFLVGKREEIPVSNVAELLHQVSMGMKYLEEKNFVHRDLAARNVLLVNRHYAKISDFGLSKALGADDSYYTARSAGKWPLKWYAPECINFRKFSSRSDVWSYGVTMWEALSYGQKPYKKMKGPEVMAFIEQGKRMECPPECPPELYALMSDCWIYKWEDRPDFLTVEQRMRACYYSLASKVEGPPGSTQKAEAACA
Kind of experiment: Selectivity interaction (KinomeScan (DiscoverX)) EUB0000655a ZAP70. Conditions: at 10 µM.

Experiment [13] addresses Histone-lysine N-methyltransferase SETDB1 (Homo sapiens) (UniProt Q15047). Kind of experiment: Selectivity interaction (Transferase panel (protein, RNA, and DNA methyltransferases. and EP300 (acetyltransferase))) EUB0000270b SETDB1.
Experiment [14] deals with Mitogen-activated protein kinase 1 (Homo sapiens, UniProt P28482). Kind of experiment: Selectivity interaction (KinomeScan (DiscoverX)) EUB0000618a MAPK1. Conditions: at 10 µM.
Experiment [15] concerns the target Casein kinase I isoform gamma-2 (Homo sapiens) (UniProt P78368). Nature of the experiment: Selectivity interaction (KinomeScan (DiscoverX)) EUB0000229b CSNK1G2. Conditions: at 10 µM.
Experiment [16] in a line: Selectivity interaction (KinomeScan (DiscoverX)) EUB0000229b CDK2H. The following applies: at 1 µM.
Experiment [17] addresses Mitogen-activated protein kinase kinase kinase kinase 1 (Homo sapiens) (UniProt Q92918). Nature of the experiment: Selectivity interaction (Kinase panel (KiNativ target engagement assay in Jurkat cells)) EUB0001635a MAP4K1. The experiment is classed as cell-based. Conditions: Selectivity number of off-targets 0.0, Selectivity number of targets 233.0, Source Knowledge https://www.sciencedirect.com/science/article/pii/S2451945619300674?via%3Dihub, at 1 µM.

For experiment [18], the target named is Serine/threonine-protein kinase 38-like (Homo sapiens) (UniProt Q9Y2H1). Nature of the experiment: Selectivity interaction (Kinase panel (KiNativ target engagement assay in Jurkat cells)) EUB0001635a STK38L. The following applies: Selectivity number of off-targets 0.0, Selectivity number of targets 233.0, Source Knowledge https://www.sciencedirect.com/science/article/pii/S2451945619300674?via%3Dihub, at 1 µM. The experiment is classed as cell-based.
Chain of Serine/threonine-protein kinase 38-like (Homo sapiens) (Q9Y2H1 2-464 limits assumed): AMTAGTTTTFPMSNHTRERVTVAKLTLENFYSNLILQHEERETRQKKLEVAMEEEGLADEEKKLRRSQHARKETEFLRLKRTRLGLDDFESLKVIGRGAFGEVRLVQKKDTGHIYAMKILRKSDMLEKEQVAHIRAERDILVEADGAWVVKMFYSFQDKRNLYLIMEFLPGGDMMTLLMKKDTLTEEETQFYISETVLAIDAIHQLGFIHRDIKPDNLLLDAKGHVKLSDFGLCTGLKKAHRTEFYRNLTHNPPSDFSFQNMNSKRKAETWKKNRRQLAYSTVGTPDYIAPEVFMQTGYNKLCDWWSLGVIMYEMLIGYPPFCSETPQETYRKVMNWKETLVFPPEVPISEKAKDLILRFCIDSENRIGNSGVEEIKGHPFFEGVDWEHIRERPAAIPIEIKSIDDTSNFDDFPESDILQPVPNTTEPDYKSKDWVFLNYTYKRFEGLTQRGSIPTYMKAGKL

Chain of Calcium/calmodulin-dependent protein kinase kinase 2 (Homo sapiens) (Q96RR4 2-588 limits assumed): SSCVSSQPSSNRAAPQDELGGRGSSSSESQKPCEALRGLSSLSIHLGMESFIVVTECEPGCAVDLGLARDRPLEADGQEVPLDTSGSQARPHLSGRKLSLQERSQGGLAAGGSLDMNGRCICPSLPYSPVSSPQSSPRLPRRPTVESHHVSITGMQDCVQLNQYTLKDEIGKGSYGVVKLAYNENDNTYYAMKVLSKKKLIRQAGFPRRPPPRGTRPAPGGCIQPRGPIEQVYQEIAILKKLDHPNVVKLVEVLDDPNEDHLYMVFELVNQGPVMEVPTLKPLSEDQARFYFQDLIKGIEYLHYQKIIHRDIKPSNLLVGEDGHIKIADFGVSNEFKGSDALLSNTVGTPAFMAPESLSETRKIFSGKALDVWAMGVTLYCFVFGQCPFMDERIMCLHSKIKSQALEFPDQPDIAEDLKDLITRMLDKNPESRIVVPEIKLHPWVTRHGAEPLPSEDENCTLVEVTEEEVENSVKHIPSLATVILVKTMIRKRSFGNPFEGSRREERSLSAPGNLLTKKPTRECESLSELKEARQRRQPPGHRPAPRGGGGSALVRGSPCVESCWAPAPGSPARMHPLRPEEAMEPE
Chain of Phosphorylase b kinase gamma catalytic chain, skeletal muscle/heart isoform (Homo sapiens) (Q16816 whole entry, looked up, canonical isoform): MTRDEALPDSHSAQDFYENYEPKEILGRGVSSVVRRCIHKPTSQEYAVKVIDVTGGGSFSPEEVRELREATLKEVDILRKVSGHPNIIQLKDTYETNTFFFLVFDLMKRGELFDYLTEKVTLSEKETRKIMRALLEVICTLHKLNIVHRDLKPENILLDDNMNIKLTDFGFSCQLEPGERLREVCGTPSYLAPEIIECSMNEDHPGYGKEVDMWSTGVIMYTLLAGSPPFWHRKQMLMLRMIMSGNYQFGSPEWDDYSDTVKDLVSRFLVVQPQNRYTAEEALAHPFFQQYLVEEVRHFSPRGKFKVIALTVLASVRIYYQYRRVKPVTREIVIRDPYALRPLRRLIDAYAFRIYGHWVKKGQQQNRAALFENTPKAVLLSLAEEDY
Chain of Mitogen-activated protein kinase 1 (P28482 whole entry, canonical isoform): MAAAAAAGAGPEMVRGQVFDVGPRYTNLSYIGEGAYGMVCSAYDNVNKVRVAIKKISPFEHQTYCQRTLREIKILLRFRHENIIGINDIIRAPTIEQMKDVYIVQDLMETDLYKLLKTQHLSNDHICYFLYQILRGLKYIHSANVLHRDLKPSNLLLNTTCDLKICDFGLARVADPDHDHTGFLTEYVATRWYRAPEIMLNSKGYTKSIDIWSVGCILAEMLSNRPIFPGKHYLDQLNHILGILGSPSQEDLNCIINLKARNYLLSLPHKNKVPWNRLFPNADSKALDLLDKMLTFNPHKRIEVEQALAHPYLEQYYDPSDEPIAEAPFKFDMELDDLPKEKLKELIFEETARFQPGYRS
Chain of Casein kinase I isoform gamma-2 (Homo sapiens) (P78368 whole entry, looked up, canonical isoform): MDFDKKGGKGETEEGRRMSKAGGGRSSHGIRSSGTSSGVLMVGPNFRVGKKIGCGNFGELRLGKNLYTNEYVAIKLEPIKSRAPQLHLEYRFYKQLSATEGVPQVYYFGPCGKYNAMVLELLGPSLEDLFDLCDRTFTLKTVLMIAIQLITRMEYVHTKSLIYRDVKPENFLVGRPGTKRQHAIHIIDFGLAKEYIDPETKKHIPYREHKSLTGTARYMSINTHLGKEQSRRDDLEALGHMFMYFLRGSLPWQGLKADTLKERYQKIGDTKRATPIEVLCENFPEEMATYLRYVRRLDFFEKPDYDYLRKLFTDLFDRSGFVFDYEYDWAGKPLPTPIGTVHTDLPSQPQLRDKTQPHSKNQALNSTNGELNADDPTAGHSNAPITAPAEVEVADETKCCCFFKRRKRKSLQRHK
Chain of Ribosomal protein S6 kinase alpha-2 (Homo sapiens) (Q15349 whole entry): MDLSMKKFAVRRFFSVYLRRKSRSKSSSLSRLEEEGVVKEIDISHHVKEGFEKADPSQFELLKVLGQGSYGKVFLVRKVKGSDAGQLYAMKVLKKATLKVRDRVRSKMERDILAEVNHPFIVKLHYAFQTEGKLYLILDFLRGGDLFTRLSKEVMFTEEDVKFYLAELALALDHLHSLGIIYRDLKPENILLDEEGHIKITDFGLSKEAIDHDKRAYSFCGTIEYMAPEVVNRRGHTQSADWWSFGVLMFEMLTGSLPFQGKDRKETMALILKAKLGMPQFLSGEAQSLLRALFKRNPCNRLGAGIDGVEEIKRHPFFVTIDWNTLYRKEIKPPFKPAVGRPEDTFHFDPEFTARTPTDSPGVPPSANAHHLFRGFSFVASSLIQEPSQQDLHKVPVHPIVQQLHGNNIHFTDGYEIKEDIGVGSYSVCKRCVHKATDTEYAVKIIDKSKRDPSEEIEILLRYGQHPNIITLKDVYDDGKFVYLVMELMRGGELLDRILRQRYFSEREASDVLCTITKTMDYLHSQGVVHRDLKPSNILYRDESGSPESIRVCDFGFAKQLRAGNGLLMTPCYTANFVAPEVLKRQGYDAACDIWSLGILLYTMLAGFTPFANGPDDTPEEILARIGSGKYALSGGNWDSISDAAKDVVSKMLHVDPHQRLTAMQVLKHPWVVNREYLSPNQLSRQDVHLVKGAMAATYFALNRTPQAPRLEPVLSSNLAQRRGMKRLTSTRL
Chain of Protein-tyrosine kinase 6 (Q13882 whole entry, looked up): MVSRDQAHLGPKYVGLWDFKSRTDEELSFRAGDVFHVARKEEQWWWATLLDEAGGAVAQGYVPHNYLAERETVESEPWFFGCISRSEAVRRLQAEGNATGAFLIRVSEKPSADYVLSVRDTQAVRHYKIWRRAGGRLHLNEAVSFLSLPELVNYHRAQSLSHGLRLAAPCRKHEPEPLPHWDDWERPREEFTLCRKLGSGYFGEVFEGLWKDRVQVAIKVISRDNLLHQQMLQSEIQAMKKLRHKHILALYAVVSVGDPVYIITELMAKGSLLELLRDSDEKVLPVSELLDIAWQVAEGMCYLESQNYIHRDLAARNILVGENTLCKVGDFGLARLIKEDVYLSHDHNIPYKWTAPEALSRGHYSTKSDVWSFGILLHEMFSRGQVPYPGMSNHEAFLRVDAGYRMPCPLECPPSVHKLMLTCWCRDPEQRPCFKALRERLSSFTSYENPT
Chain of Dual specificity protein kinase CLK3 (P49761 whole entry, looked up): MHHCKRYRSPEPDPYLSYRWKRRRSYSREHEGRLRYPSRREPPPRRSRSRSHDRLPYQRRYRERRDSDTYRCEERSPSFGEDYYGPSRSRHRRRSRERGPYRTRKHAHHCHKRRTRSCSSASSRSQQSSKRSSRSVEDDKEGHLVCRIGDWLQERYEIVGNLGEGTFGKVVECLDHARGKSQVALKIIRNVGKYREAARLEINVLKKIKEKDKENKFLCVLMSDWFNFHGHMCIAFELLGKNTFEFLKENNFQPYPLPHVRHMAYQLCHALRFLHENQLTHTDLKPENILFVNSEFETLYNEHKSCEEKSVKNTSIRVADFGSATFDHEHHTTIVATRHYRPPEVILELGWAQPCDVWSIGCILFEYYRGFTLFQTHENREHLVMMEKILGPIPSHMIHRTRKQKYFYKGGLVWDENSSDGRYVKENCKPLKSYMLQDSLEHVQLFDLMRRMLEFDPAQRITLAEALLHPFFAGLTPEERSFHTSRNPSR
Chain of Cyclin-dependent kinase 5/CDK5 activator 1 (Q00535 whole entry): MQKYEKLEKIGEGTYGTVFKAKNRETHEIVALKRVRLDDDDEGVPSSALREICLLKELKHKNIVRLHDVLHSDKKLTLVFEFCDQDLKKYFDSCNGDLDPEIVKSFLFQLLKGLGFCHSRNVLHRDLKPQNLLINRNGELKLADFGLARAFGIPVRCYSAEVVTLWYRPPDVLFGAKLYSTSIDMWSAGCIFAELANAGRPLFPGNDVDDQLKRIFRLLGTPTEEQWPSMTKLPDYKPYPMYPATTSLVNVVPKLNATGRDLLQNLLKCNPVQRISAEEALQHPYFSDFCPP
Chain of Cyclin-dependent kinase 5/CDK5 activator 1 (Q15078 whole entry, further chain): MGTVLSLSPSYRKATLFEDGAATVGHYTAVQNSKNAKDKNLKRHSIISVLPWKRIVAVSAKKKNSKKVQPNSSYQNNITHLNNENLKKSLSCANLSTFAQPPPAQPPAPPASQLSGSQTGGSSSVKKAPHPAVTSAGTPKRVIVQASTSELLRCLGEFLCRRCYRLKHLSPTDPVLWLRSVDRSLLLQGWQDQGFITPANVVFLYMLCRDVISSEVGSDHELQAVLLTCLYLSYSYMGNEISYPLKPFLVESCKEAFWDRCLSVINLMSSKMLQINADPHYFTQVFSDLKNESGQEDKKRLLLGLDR

`COCC(=O)NC/C=C/c1ccc2ncnc(Nc3ccc(Oc4ccc(C)nc4)c(C)c3)c2c1` [CP-724714] came in with a % of control in experiment [1] of 100%.

Consider `N#Cc1cccc(-c2c[nH]c3ncnc(N4CCOCC4)c23)c1`, for which the % of control in experiment [2] was 78%.

In the case of `O=C(NOC[C@H](O)CO)c1ccc(F)c(F)c1Nc1ccc(I)cc1F`, the % of control in [3] worked out at 100%.

In turn, `CC[C@@H]1[C@H](F)C(=O)N[C@@H]1COc1nccc2cc(C(N)=O)c(OC)cc12` [ZIMLOVISERTIB] returned a % of inhibition in experiment [4] of 4.43%.

In the case of `C=CC(=O)Nc1cccc(C(=O)Nc2ccc(Nc3cc(-c4[nH]c(SC)nc4C)ccn3)cc2)c1`, the % of control in experiment [5] (at 1 µM) worked out at 83%; in experiment [5] (at 5 µM), 86%; in experiment [6] (at 1 µM), 80%; in experiment [6] (at 5 µM), 44%.

On to `CN(C)C/C=C/C(=O)Nc1ccc(C(=O)N2CCCC(Nc3ncc(Cl)c(-c4c[nH]c5ccccc45)n3)C2)cc1` (stereo unspecified), for which the figures for the % of control in [7] and in [8] were 86% and 70%, respectively.

Take `CCc1cccc(CC)c1NC(=O)c1nn(C)c2c1CCc1cnc(Nc3ccc(C(=O)NC4CCN(C)CC4)cc3OC(F)(F)F)nc1-2`: the IC50 – broadly, the concentration that inhibits the measured activity by half – in experiment [9] was greater than 10 µM.

For `CN(C)CCOc1ccc(-c2nc(-c3ccncc3)c(-c3ccc4c(c3)CC/C4=N\O)[nH]2)cc1`, the % of control in experiment [10] amounted to 100%; in experiment [11], 61%; in experiment [12] it was 100%.

Consider `Cc1cc(CN)cc(C)c1-c1ncn(C)c1-c1cncn1C`, for which the % activity in experiment [13] (at 1 µM) was greater than 90%; in [13] (at 10 µM), greater than 80%.

`O[C@H]1CC[C@H](Nc2ncc3nc(Nc4c(F)cc(F)cc4F)n([C@H]4CCOC4)c3n2)CC1`: the % of control in experiment [14] was 15%.

On to `COc1cc(N(C)c2ccnc3ccc(C(F)(F)F)cc23)cc(OC)c1OC`, for which the figures for the % binding in [15] and in experiment [16] were 96% and 100%, respectively.

As to `C=CC(=O)Nc1ccc(C(=O)Nc2[nH]nc3c2CN(C(=O)N[C@H](CN(C)C)c2ccccc2)C3(C)C)cc1`, the % of engagement in experiment [17] came to 4.1%; in experiment [18], 3.8%.
